In brackets after ≈: the same amount, converted by molar mass.
Tested on: Mycobacterium tuberculosis
Assay: Antimycobacterial activity against Mycobacterium tuberculosis H37Rv ATCC 27294
Assay type: functional
Details: not given

SMILES	MIC [µg/mL]
COC(=O)/C=C/C(=O)c1ccc(OC)cc1	0.25 (≈ 1.14 µM)

Tested on: Mycobacterium tuberculosis
Assay: Antimycobacterial activity against Mycobacterium tuberculosis H37Rv ATCC 27294 after 4 days by microplate Alamar blue assay
Assay type: functional
Details: H37Rv ATCC 27294, 96 h

SMILES	MIC [µg/mL]
CN(C)C(=O)/C=C/C(=O)c1ccc(-c2ccccc2)cc1	0.125 (≈ 0.447 µM)
COC(=O)/C=C/C(=O)c1ccc(OC)cc1	0.25 (≈ 1.14 µM)
CCOc1ccc(C(=O)/C=C/C(=O)N(C)CC)cc1	0.48 (≈ 1.84 µM)
COc1ccc(C(=O)/C=C/C(=O)OCCNC(=O)OC(C)(C)C)cc1	> 4
COc1ccc(OC)c(C(=O)/C=C/C(=O)O)c1	> 4
CCCN(CCC)C(=O)/C=C/C(=O)c1ccccc1F	0.94 (≈ 3.39 µM)
CC(C)OC(=O)/C=C/C(=O)c1ccc(-c2ccccc2)cc1	0.24 (≈ 0.815 µM)
O=C(O)/C=C/C(=O)c1cccc2ccccc12	> 4
CCN(C)C(=O)/C=C/C(=O)c1ccccc1OC	0.95 (≈ 3.84 µM)
CN(C)C(=O)/C=C/C(=O)c1cccc(Br)c1	0.96 (≈ 3.4 µM)
O=C(O)/C=C/C(=O)c1ccc(-c2ccccc2)cc1	> 4
CC(C)(C)OC(=O)NCCOC(=O)/C=C/C(=O)c1ccc(Oc2ccccc2)cc1	> 4
CCCN(CCC)C(=O)/C=C/C(=O)c1ccc(F)cc1	0.95 (≈ 3.43 µM)
CC(C)(C)OC(=O)NCCOC(=O)/C=C/C(=O)c1ccc2c(c1)CCO2	> 4
Cc1ccc(C(=O)/C=C/C(=O)OCCNC(=O)OC(C)(C)C)cc1	> 4
CCOC(=O)/C=C/C(=O)c1ccco1	1.09 (≈ 5.61 µM)
CCOc1ccc(C(=O)/C=C/C(=O)N(C)C)cc1	0.48 (≈ 1.94 µM)
CCN(C)C(=O)/C=C/C(=O)c1cccc([N+](=O)[O-])c1	> 2
CCCN(CCC)C(=O)/C=C/C(=O)c1ccc(Cl)cc1	1.67 (≈ 5.68 µM)
CC(C)(C)OC(=O)NCCOC(=O)/C=C/C(=O)c1ccc(OCc2ccccc2)cc1	1.91 (≈ 4.49 µM)
CCOC(=O)/C=C/C(=O)c1ccc(OCc2ccccc2)cc1	0.96 (≈ 3.09 µM)
CC(C)OC(=O)/C=C/C(=O)C1CC1	0.68 (≈ 3.73 µM)
CCOc1ccc(C(=O)/C=C/C(=O)OCCNC(=O)OC(C)(C)C)cc1	1.45 (≈ 3.99 µM)
COC(=O)/C=C/C(=O)c1ccc(OCc2ccccc2)cc1	0.67 (≈ 2.26 µM)
CC(=O)/C=C/C(=O)OC(C)C	2.5 (≈ 16 µM)
COc1cccc(C(=O)/C=C/C(=O)OCCNC(=O)OC(C)(C)C)c1	> 4
Cc1ccc(C(=O)/C=C/C(=O)O)cc1	> 4
CCOc1ccc(C(=O)/C=C/C(=O)O)cc1	> 4

Tested on: Mycobacterium tuberculosis
Assay: Antimycobacterial activity against Mycobacterium tuberculosis isolate 19809 after 4 days by microplate Alamar blue assay
Assay type: functional
Details: isolate 19809, 96 h

SMILES	MIC [µg/mL]
CN(C)C(=O)/C=C/C(=O)c1ccc(-c2ccccc2)cc1	0.48 (≈ 1.72 µM)

Tested on: Mycobacterium tuberculosis
Assay: Antimycobacterial activity against Mycobacterium tuberculosis isolate 19852 after 4 days by microplate Alamar blue assay
Assay type: functional
Details: isolate 19852, 96 h

SMILES	MIC [µg/mL]
CN(C)C(=O)/C=C/C(=O)c1ccc(-c2ccccc2)cc1	0.19 (≈ 0.68 µM)

Tested on: Mycobacterium tuberculosis
Assay: Antimycobacterial activity against Mycobacterium tuberculosis isolate 19874 after 4 days by microplate Alamar blue assay
Assay type: functional
Details: isolate 19874, 96 h

SMILES	MIC [µg/mL]
CN(C)C(=O)/C=C/C(=O)c1ccc(-c2ccccc2)cc1	0.23 (≈ 0.823 µM)

Tested on: Mycobacterium tuberculosis
Assay: Antimycobacterial activity against Mycobacterium tuberculosis isolate 19769 after 4 days by microplate Alamar blue assay
Assay type: functional
Details: isolate 19769, 96 h

SMILES	MIC [µg/mL]
CN(C)C(=O)/C=C/C(=O)c1ccc(-c2ccccc2)cc1	0.43 (≈ 1.54 µM)

Tested on: Mycobacterium tuberculosis
Assay: Antimycobacterial activity against Mycobacterium tuberculosis isolate 19675 after 4 days by microplate Alamar blue assay
Assay type: functional
Details: isolate 19675, 96 h

SMILES	MIC [µg/mL]
CN(C)C(=O)/C=C/C(=O)c1ccc(-c2ccccc2)cc1	0.45 (≈ 1.61 µM)

Tested on: Mycobacterium tuberculosis
Assay: Antimycobacterial activity against Mycobacterium tuberculosis isolate 19863 after 4 days by microplate Alamar blue assay
Assay type: functional
Details: isolate 19863, 96 h

SMILES	MIC [µg/mL]
CN(C)C(=O)/C=C/C(=O)c1ccc(-c2ccccc2)cc1	0.23 (≈ 0.823 µM)

Tested on: Mycobacterium tuberculosis
Assay: Antimycobacterial activity against Mycobacterium tuberculosis isolate 19805 after 4 days by microplate Alamar blue assay
Assay type: functional
Details: isolate 19805, 96 h

SMILES	MIC [µg/mL]
CN(C)C(=O)/C=C/C(=O)c1ccc(-c2ccccc2)cc1	0.25 (≈ 0.895 µM)

Tested on: Mycobacterium tuberculosis
Assay: Antimycobacterial activity against Mycobacterium tuberculosis isolate 19806 after 4 days by microplate Alamar blue assay
Assay type: functional
Details: isolate 19806, 96 h

SMILES	MIC [µg/mL]
CN(C)C(=O)/C=C/C(=O)c1ccc(-c2ccccc2)cc1	0.23 (≈ 0.823 µM)

Tested on: Mycobacterium tuberculosis
Assay: Antimycobacterial activity against Mycobacterium tuberculosis isolate 19810 after 4 days by microplate Alamar blue assay
Assay type: functional
Details: isolate 19810, 96 h

SMILES	MIC [µg/mL]
CN(C)C(=O)/C=C/C(=O)c1ccc(-c2ccccc2)cc1	0.12 (≈ 0.43 µM)

Tested on: Mycobacterium tuberculosis
Assay: Antimycobacterial activity against Mycobacterium tuberculosis isolate 11168 after 4 days by microplate Alamar blue assay
Assay type: functional
Details: isolate 11168, 96 h

SMILES	MIC [µg/mL]
CN(C)C(=O)/C=C/C(=O)c1ccc(-c2ccccc2)cc1	0.05 (≈ 0.179 µM)

Tested on: not listed separately
Assay: Toxicity in po dosed BALB/c mouse
Assay type: organism-based
Details: in vivo

SMILES	LD50 [mg/kg]
COC(=O)/C=C/C(=O)c1ccc(OC)cc1	568

From ChEMBL document CHEMBL4330134, “Design, synthesis, and bioevaluation of a novel class of (E)-4-oxo-crotonamide derivatives as potent antituberculosis agents” (Bioorg Med Chem Lett, 2019)
